In patent US8486931B2, “Substituted oxindole compounds” (Abbott GmbH & Co. KG, priority 2007, dated 2013) one finds Ki data, which are given here for 20 compounds.

Counter-ions that a name gives are not always drawn.

The target of the assay is T1, human vasopressin V1b receptor (Homo sapiens, UniProt P47901).
T1 construct: expressed in transfected cells; host or cells: CHO-K1 (cell line hV1b-3H2_CHO), membrane preparation
T1 sequence (P47901 1-424): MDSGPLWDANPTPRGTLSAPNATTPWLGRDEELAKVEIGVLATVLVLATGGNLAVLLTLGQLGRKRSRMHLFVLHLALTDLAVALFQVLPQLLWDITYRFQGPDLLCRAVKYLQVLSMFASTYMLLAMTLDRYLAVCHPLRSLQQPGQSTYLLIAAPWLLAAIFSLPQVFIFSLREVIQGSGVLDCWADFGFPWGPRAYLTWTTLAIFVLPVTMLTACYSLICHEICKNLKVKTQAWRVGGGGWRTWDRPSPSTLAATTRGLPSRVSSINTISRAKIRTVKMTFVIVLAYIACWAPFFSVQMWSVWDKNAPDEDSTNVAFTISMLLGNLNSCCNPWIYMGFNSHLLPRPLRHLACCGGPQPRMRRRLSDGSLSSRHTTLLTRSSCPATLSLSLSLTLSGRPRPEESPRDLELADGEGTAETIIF
Put plainly: Vasopressin V1b receptor binding assay. Particulars: membranes from CHO-K1 cells with stably expressed human V1b receptors, 1.5 nM 3H-AVP displacement; with more than one stereogenic center: the diastereomer with stronger affinity. How it is done: Such compounds can be investigated in suitable assays which establish the affinity to a receptor, with the affinity constant Ki represening a measure of the potency of the compounds and a smaller value representing a larger potency. The compounds of the invention were tested in the following receptor binding assay for their affinity for the V1 b receptor.
Vasopressin V1 b Receptor Binding Assay:
The test substances were dissolved in a concentration of 10^−2 M in DMSO (dimethyl sulfoxide) and further diluted to 5×10^−4 M to 5×10^−9 M in DMSO. This series of DMSO predilutions was diluted 1:10 with assay buffer. The substance concentration was again diluted 1:5 in the assay mixture (2% DMSO in the mixture).
The membrane pellet was again homogenized and centrifuged as described and then taken up in 50 mM Tris-HCl, pH 7.4, homogenized and stored in aliquots frozen in liquid nitrogen at −190° C.
The incubation buffer was: 50 mM Tris, 10 mM MgCl2, 0.1% BSA, pH 7.4.
The nonspecific binding was determined with 1 μM AVP (Bachem #H1780). All determinations were carried out as triplicate determinations. After incubation (60 minutes at room temperature), the free radioligand was removed by vacuum filtration (Skatron cell harvester 7000) through Whatman GF/B glass fiber filter mats, and the filters were transferred into scintillation vials. The liquid scintillation measurement took place in a Tricarb model 2000 or 2200CA instrument (Packard). Conversion of the measured cpm into dpm was carried out with the aid of a standard quench series.
The binding parameters were calculated by nonlinear regression in SAS.
The above assay was used to measure the affinities of the compounds of the invention for the human vasopressin V1 b receptor and to determine with affinity constants (Ki).
What is called Ki is the dissociation constant of the complex between target and ligand, obtained from inhibition or displacement. `CCOc1ccc(OC)cc1C1(N2CC3CN(c4ccncc4)CC3C2)C(=O)N(S(=O)(=O)c2ccc(OC)cn2)c2ccc(C#N)cc21` (racemic) [Example 68, (±)-5-Cyano-3-(2-ethoxy-5-methoxyphenyl)-1-(5-methoxypyridine-2-sulfonyl)-3-(5-pyridin-4-ylhexahydropyrrolo[3,4-c]pyrrol-2-yl)-2,3-dihydro-1H-indol-2-one] showed an inhibition constant Ki of less than 10 nM.

“(+)-5-Cyano-3-(6-chloro-2-ethoxy-pyridin-3-yl)-1-(5-methoxy-pyridine-2-sulfonyl)-3-[4-(2-methyl-pyridin-4-yl)-piperazin-1-yl]-2,3-dihydro-1H-indol-2-one [Example 152]” had a Ki of less than 10 nM.

Compound `CCOc1ccc(OC)cc1C1(N2C[C@@H]3C[C@H]2CN3c2ccncc2)C(=O)N(S(=O)(=O)c2ccc(C)cn2)c2ccc(C#N)cc21` (mixture of isomers) [Example 20, (±)-5-Cyano-3-(2-ethoxy-5-methoxyphenyl)-1-(5-methylpyridine-2-sulfonyl)-3-((1S, 4S)-5-pyridin-4-yl-2,5-diazabicyclo[2.2.1]hept-2-yl)-2,3-dihydro-1H-indol-2-one] registered a Ki of 10 to 50 nM.

`COc1ccccc1C1(N2CCN(c3ccncc3)CC2)C(=O)N(S(=O)(=O)c2cccc3cccnc23)c2ccc(C#N)cc21` (racemic) [Example 43, (±)-5-Cyano-3-(2-methoxyphenyl)-3-(4-pyridin-4-ylpiperazin-1-yl)-1-(quinoline-8-sulfonyl)-2,3-dihydro-1H-indol-2-one] had an inhibitory constant (Ki) of 10 to 50 nM.

`CCOc1ccc(OC)cc1C1(N2CCN(c3ccnc(C)c3)CC2)C(=O)N(S(=O)(=O)c2ccc(Cl)c3cccnc23)c2ccc(C#N)cc21` (racemic) [Example 53, (±)-5-Cyano-1-(5-chloroquinoline-8-sulfonyl)-3-(2-ethoxy-5-methoxyphenyl)-3-[4-(2-methylpyridin-4-yl)piperazin-1-yl]-2,3-dihydro-1H-indol-2-one] came in with a Ki of 10 to 50 nM.

`CCOc1nc(Cl)ccc1C1(N2CCCN(c3ccncc3)CC2)C(=O)N(S(=O)(=O)c2ccc(OC)c3cccnc23)c2ccc(C#N)cc21` (racemic) [Example 71, (±)-5-Cyano-3-(6-chloro-2-ethoxypyridin-3-yl)-1-(5-methoxyquinoline-8-sulfonyl)-3-(4-pyridin-4-yl-[1,4]diazepan-1-yl)-2,3-dihydro-1H-indol-2-one] had a Ki of 10 to 50 nM.

Regarding `CCOc1ccc(CC)cc1C1(N2CCN(c3ccnc(C)c3)CC2)C(=O)N(S(=O)(=O)c2ccc(OC)c3cccnc23)c2ccc(C#N)cc21` (racemic) [Example 160, (±)-5-Cyano-3-(2-ethoxy-5-ethyl-phenyl)-1-(5-methoxy-quinoline-8-sulfonyl)-3-[4-(2-methyl-pyridin-4-yl)-piperazin-1-yl]-2,3-dihydro-1H-indol-2-one], the Ki is less than 10 nM.

Compound `CCOc1cc(F)ccc1C1(N2CCCN(c3ccncc3)CC2)C(=O)N(S(=O)(=O)c2ccc(OC)cn2)c2ccc(C#N)cc21` (racemic) [Example 147, (±)-5-Cyano-3-(2-ethoxy-4-fluoro-phenyl)-1-(5-methoxy-pyridine-2-sulfonyl)-3-(4-pyridin-4-yl-[1,4]diazepan-1-yl)-2,3-dihydro-1H-indol-2-one] returned a Ki of 10 to 50 nM.

For the compound `CCOc1ccc(CC)cc1C1(N2CCN(c3ccnc(C(C)C)c3)CC2)C(=O)N(S(=O)(=O)c2ccc(OC)cn2)c2ccc(C#N)cc21` (racemic) [Example 166, (±)-5-Cyano-3-(2-ethoxy-5-ethyl-phenyl)-3-[4-(2-isopropyl-pyridin-4-yl)-piperazin-1-yl]-1-(5-methoxy-pyridine-2-sulfonyl)-2,3-dihydro-1H-indol-2-one], the Ki was less than 10 nM.

Regarding `CCOc1ccc(OC)cc1C1(N2CCC(N3CCNCC3)CC2)C(=O)N(S(=O)(=O)c2ccc(OC)c3cccnc23)c2ccc(C#N)cc21` (racemic) [Example 87, (±)-5-Cyano-3-(2-ethoxy-5-methoxyphenyl)-1-(5-methoxyquinoline-8-sulfonyl)-3-(4-piperazin-1-ylpiperidin-1-yl)-2,3-dihydro-1H-indol-2-one hydrochloride], the Ki was less than 10 nM.

As for `CCOc1ccc(OC)cc1C1(N2CCN(c3ccnc(CC)c3)CC2)C(=O)N(S(=O)(=O)c2ccc(OC)cn2)c2ccc(C#N)cc21` (racemic) [Example 146, (±)-5-Cyano-3-(2-ethoxy-5-methoxy-phenyl)-3-[4-(2-ethyl-pyridin-4-yl)-piperazin-1-yl]-1-(5-methoxy-pyridine-2-sulfonyl)-2,3-dihydro-1H-indol-2-one], the Ki was less than 10 nM.

Regarding `CCOc1ccc(CC)cc1C1(N2CCN(c3ccnc(C)c3)CC2)C(=O)N(S(=O)(=O)c2ccc(OC)cn2)c2ccc(C#N)cc21` (racemic) [Example 165, (±)-5-Cyano-3-(2-ethoxy-5-ethyl-phenyl)-1-(5-methoxy-pyridine-2-sulfonyl)-3-[4-(2-methyl-pyridin-4-yl)-piperazin-1-yl]-2,3-dihydro-1H-indol-2-one], the Ki was less than 10 nM.

For `CCOc1ccccc1C1(N2CCN(c3ccnc(CC)c3)CC2)C(=O)N(S(=O)(=O)c2cccc3cccnc23)c2ccc(C#N)cc21` (racemic) [Example 56, (±)-5-Cyano-3-(2-ethoxyphenyl)-3-[4-(2-ethylpyridin-4-yl)piperazin-1-yl]-1-(quinoline-8-sulfonyl)-2,3-dihydro-1H-indol-2-one], the inhibition constant Ki was 10 to 50 nM.

`CCOc1nc(Cl)ccc1C1(N2CC3CC2CN3c2ccncc2)C(=O)N(S(=O)(=O)c2ccc(OC)cn2)c2ccc(C#N)cc21` (racemic) [Example 155, (±)-5-Cyano-3-(6-chloro-2-ethoxy-pyridin-3-yl)-1-(5-methoxy-pyridine-2-sulfonyl)-3-((1S,4S)-5-pyridin-4-yl-2,5-diaza-bicyclo[2.2.1]hept-2-yl)-2,3-dihydro-1-2-one] registered an inhibition constant Ki of 10 to 50 nM.

As to `CCOc1ccc(OC)cc1C1(N2CCN(c3ccnc(C)c3)CC2)C(=O)N(S(=O)(=O)c2ccc(OC)c3cccnc23)c2ccc(C#N)cc21` (racemic) [Example 33, (±)-5-Cyano-3-(2-ethoxy-5-methoxyphenyl)-1-(5-methoxyquinoline-8-sulfonyl)-3-[4-(2-methylpyridin-4-yl)piperazin-1-yl]-2,3-dihydro-1H-indol-2-one], the inhibition constant Ki is less than 10 nM.

Take `CCOc1ccccc1C1(N2CCN(c3ccncc3)CC2)C(=O)N(S(=O)(=O)c2cccc3c(C)ccnc23)c2ccc(C#N)cc21` (single isomer, unassigned; (+)) [Example 63, (+)-5-Cyano-3-(2-ethoxyphenyl)-1-(4-methylquinoline-8-sulfonyl)-3-(4-pyridin-4-yl-piperazin-1-yl)-2,3-dihydro-1H-indol-2-one]: the Ki was less than 10 nM.

Consider `CCOc1ncccc1C1(N2CCN(c3ccncc3)CC2)C(=O)N(S(=O)(=O)c2cccc3cccnc23)c2ccc(C#N)cc21` (racemic) [Example 5, (±)-5-Cyano-3-(2-ethoxypyridin-3-yl)-3-(4-pyridin-4-ylpiperazin-1-yl)-1-(quinoline-8-sulfonyl)-2,3-dihydro-1H-indol-2-one], for which the Ki was less than 10 nM.

`CCOc1ccccc1C1(N2CCN(c3ccncc3)CC2)C(=O)N(S(=O)(=O)c2cccc3c(C)ccnc23)c2ccc(C#N)cc21` (racemic) [Example 16, (±)-5-Cyano-3-(2-ethoxyphenyl)-1-(4-methylquinoline-8-sulfonyl)-3-(4-pyridin-4-yl-piperazin-1-yl)-2,3-dihydro-1H-indol-2-one] had a Ki of less than 10 nM.

Compound `CCOc1cc(OC)ccc1C1(N2CCN(c3ccnc(C)c3)CC2)C(=O)N(S(=O)(=O)c2ccc(OC)cn2)c2ccc(C#N)cc21` (racemic) [Example 178, (±)-5-Cyano-3-(2-ethoxy-4-methoxy-phenyl)-1-(5-methoxy-pyridine-2-sulfonyl)-3-[4-(2-methyl-pyridin-4-yl)-piperazin-1-yl]-2,3-dihydro-1H-indol-2-one] showed a Ki of 10 to 50 nM.

Compound `CCOc1ccccc1C1(N2CCN(c3ccncc3)CC2)C(=O)N(S(=O)(=O)c2cccc3cccnc23)c2ccc(C#N)cc21` (single isomer, unassigned; (+)) [Example 60, (+)-5-Cyano-3-(2-ethoxyphenyl)-3-(4-pyridin-4-ylpiperazin-1-yl)-1-(quinolin-8-sulfonyl)-2,3-dihydro-1H-indol-2-one] yielded a Ki of less than 10 nM.
